Results taken from the NIST ThermoML archive (doi:10.1016/j.jct.2012.02.037).

Key:
[1] = 303.15 K; 101.33 kPa; Liquid; Vibrating tube method
[2] = refractive index (Na D-line) (dimensionless); conditions: 303.15 K; 101.33 kPa; Liquid; Standard Abbe refractometry
[3] = excess molar enthalpy (molar enthalpy of mixing); xn = mol fraction of the nth substance listed; conditions: 300 K, 101 kPa, Liquid, Flow calorimetry

CCCCO [butan-1-ol]
Conditions	mass density [kg/m3]	refractive index
[1]	801.98	–
[2]	–	1.3962

CCC(C)O (configuration not stated) [butan-2-ol]
Conditions	mass density [kg/m3]	refractive index
[1]	798.58	–
[2]	–	1.394

OC1CCCCC1 [cyclohexanol]
Conditions	mass density [kg/m3]	refractive index
[1]	941.36	–
[2]	–	1.4632

OC1CCCCC1 [cyclohexanol] + CC(C)O
[3]
Conditions	excess molar enthalpy [kJ/mol]
x1 = 0.0817	0.0678
x1 = 0.1653	0.116
x1 = 0.2454	0.149
x1 = 0.3436	0.179
x1 = 0.5462	0.195
x1 = 0.6326	0.189
x1 = 0.7173	0.169
x1 = 0.8036	0.124
x1 = 0.9097	0.0721

OC1CCCCC1 [cyclohexanol] + CCC(C)O
[3]
Conditions	excess molar enthalpy [kJ/mol]
x1 = 0.0831	0.0468
x1 = 0.0874	0.0489
x1 = 0.1613	0.0793
x1 = 0.1704	0.0841
x1 = 0.2787	0.119
x1 = 0.3304	0.127
x1 = 0.4131	0.14
x1 = 0.5657	0.15
x1 = 0.6512	0.152
x1 = 0.7441	0.136
x1 = 0.7557	0.134
x1 = 0.8271	0.103
x1 = 0.8352	0.0997
x1 = 0.9129	0.0535
x1 = 0.9201	0.0531

OC1CCCCC1 [cyclohexanol] + CCCCO
[3]
Conditions	excess molar enthalpy [kJ/mol]
x1 = 0.0976	0.0374
x1 = 0.1867	0.0599
x1 = 0.3025	0.0895
x1 = 0.3622	0.101
x1 = 0.4484	0.113
x1 = 0.5609	0.117
x1 = 0.6402	0.117
x1 = 0.7119	0.109
x1 = 0.7842	0.0922
x1 = 0.785	0.0935
x1 = 0.8549	0.0705
x1 = 0.8747	0.0591
x1 = 0.9059	0.0462

OC1CCCCC1 [cyclohexanol] + CCCO
[3]
Conditions	excess molar enthalpy [kJ/mol]
x1 = 0.0808	0.0244
x1 = 0.1568	0.0445
x1 = 0.2326	0.0631
x1 = 0.3085	0.0731
x1 = 0.3888	0.0843
x1 = 0.4614	0.0946
x1 = 0.547	0.0989
x1 = 0.6359	0.0964
x1 = 0.7223	0.0859
x1 = 0.8063	0.0696
x1 = 0.901	0.0409

OC1CCCCC1 [cyclohexanol] + CCO
[3]
Conditions	excess molar enthalpy [kJ/mol]
x1 = 0.0883	0.0686
x1 = 0.1688	0.118
x1 = 0.2501	0.147
x1 = 0.337	0.166
x1 = 0.456	0.176
x1 = 0.5436	0.177
x1 = 0.6255	0.164
x1 = 0.7119	0.145
x1 = 0.8026	0.117
x1 = 0.9062	0.0671

OC1CCCCC1 [cyclohexanol] + CO
[3]
Conditions	excess molar enthalpy [kJ/mol]
x1 = 0.0742	0.104
x1 = 0.1422	0.154
x1 = 0.2234	0.196
x1 = 0.2948	0.213
x1 = 0.4871	0.215
x1 = 0.5587	0.194
x1 = 0.6333	0.17
x1 = 0.7266	0.133
x1 = 0.8274	0.0822
x1 = 0.9162	0.0424

CCO [ethanol]
Conditions	mass density [kg/m3]	refractive index
[1]	780.82	–
[2]	–	1.358

CO [methanol]
Conditions	mass density [kg/m3]	refractive index
[1]	781.87	–
[2]	–	1.3255

CCCO [propan-1-ol]
Conditions	mass density [kg/m3]	refractive index
[1]	795.53	–
[2]	–	1.3821

CC(C)O [propan-2-ol]
Conditions	mass density [kg/m3]	refractive index
[1]	776.71	–
[2]	–	1.3741
